Tests used:
[1] = test system: MEK and ERK phosphorylation (SK-MEL-28 cells); assay: MEK and ERK phosphorylation by immunoblot in SK-MEL-28 cells; type: cell-based
Protocol: (§1) Cells were plated in 6 well dishes (5 × 10^5–8 × 10^5 cells) and allowed to attach overnight. […] The plates were then placed on ice and washed 1x with chilled PBS and lysed in buffer containing 25 mM Tris-HCl [pH 7.4], 0.25% sodium deoxycholate, 150 mM NaCl, 1% Triton X-100, supplemented with protease inhibitors (1x Roche protease inhibitor cocktail) and phosphatase inhibitors (10 mM NaF, 1 mM Na3OV4, and 20 mM β-glycerophosphate). Lysates were then cleared at 21,000 g for 10 min at 4 °C. Protein concentrations of the supernatants were then quantified using a Pierce BCA Protein Assay. 12–40 µg of protein were separated using a gradient (4–20%) Criterion TGX precast gel and transferred unto a nitrocellulose membrane. The membranes were then blocked in 5% non-fat milk in TBST (Tris-buffered Saline with Tween 20) for 1 h before probing with the indicated primary antibody overnight. Membranes were imaged using Bio-Rad Image Lab software using ECL prime detection reagent (GE Healthcare, RPN2232 or ThermoScientific, 34095).
(§2) Western blot data was quantified by using the band feature in Image Lab, and values were averaged and analyzed in GraphPad Prism. DC50 and DMAX values were fitted using a three parameter [inhibitor] versus response and reported directly from the Prism output. Mean ± SD and unpaired t-tests were performed in GraphPad Prism.

BRAF V600E = BRAF V600E (Homo sapiens, UniProt P15056, V600E); assay: Elisa kinase inhibition assay (Carna Biosciences); type: biochemical; set-up: purchased Carna Biosciences; details: Km ATP, duplicate
Protocol: Kinase assays were performed by Carna Biosciences by their protocol in duplicate using Km amounts of ATP calculated for each kinase.

[2] = biological target: T1, BRAF^V600E (SK-MEL-28 cells, homozygous) (Homo sapiens, UniProt P15056, V600E); assay: BRAF degradation by immunoblot in SK-MEL-28 cells; type: cell-based
T1 construct: endogenous in cells; host or cells: SK-MEL-28
Protocol: as §1, §2

[3] = test system: SK-MEL-246 cells (Class 2, BRAF^G469A); assay: Cell proliferation (MTS) assay; type: cell-based
[4] = test system: SK-MEL-239 C4 cells (BRAF^WT/BRAF-p61^V600E); assay: Cell proliferation (MTS) assay; type: cell-based; details: 5 days
[5] = test system: CAL-12-T cells (Class 3, BRAF^G466V); assay: Cell proliferation (MTS) assay; type: cell-based; details: 5 days
Protocol: […] 2 mg/ml MTS (Promega Corp., Madison, WI: G5421) and 25 μM phenazine methosulfate (Sigma, St. Louis, MO) were combined 19:1 and then added to cells (1 volume combined reagent: 5 volumes medium) and incubated for 1–3 h. Mitochondrial reduction of MTS to the formazan derivative was monitored by measuring the medium’s absorbance at 480 nm using a Perkin Elmer Envision Plate reader.

[6] = test system: SK-MEL-28 cells (Class 1, BRAF^V600E); assay: Cell proliferation (MTS) assay; type: cell-based; details: Homo sapiens, 72 h, 3 days, read-out: EC50, cell growth
[7] = test system: H1666 cells (Class 3, BRAF^G466V); assay: Cell proliferation (MTS) assay; type: cell-based; details: 5 days

T1 sequence (P15056 whole entry V600E): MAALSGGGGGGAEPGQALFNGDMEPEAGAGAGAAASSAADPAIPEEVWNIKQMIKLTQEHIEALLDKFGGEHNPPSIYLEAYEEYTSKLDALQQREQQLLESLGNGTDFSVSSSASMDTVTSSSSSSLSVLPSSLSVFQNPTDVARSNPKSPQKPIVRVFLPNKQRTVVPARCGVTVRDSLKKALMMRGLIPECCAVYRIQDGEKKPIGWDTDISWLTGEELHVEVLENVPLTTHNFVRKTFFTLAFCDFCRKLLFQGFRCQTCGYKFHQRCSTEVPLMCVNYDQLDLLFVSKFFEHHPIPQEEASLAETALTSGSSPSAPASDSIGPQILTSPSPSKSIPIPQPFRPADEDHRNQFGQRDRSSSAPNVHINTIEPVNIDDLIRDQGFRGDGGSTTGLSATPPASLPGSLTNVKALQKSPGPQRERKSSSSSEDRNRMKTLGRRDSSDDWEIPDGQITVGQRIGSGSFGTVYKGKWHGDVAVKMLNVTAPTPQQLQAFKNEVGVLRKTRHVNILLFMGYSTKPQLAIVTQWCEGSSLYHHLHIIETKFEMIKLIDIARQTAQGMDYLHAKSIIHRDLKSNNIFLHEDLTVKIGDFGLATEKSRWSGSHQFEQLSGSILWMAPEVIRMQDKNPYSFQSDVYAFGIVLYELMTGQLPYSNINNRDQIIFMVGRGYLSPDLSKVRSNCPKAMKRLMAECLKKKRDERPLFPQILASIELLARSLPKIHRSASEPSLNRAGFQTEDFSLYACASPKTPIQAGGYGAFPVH
Sequence of BRAF V600E (P15056 whole entry V600E): as above

Compound | concentration giving maximal inhibition of MEK and ERK phosphorylation / maximal suppression of p-ERK [1] [nM] | IC50 (BRAF V600E) [nM] | effect on BRAF protein levels [2] | EC50 ([3]; 120 h, 5-day treatment, read-out: EC50, cell growth) [nM] | effect on cell growth [4] | inhibition of cell growth / effect on cell viability [5] | EC50 [6] [nM] | inhibition of cellular growth ([3]; 5 days, at concentrations above 1 μM, not sustained at 10 μM) | cell growth inhibition [7]
CCCS(=O)(=O)Nc1ccc(F)c(C(=O)c2c[nH]c3ncc(-c4ccc(N5CCN(CC(=O)N[C@H](C(=O)N6C[C@@H](O)C[C@H]6C(=O)NCc6ccc(-c7scnc7C)cc6)C(C)(C)C)CC5)cc4)cc23)c1F [SJF-0661] | 100 | 30 | did not decrease BRAF protein levels | 278 ± 1.07 | minimal effect | minimal effect on cell viability | 243 ± 1.09 | – | –
CCCS(=O)(=O)Nc1ccc(F)c(C(=O)c2c[nH]c3ncc(-c4ccc(Cl)cc4)cc23)c1F [vemurafenib, reference compound] | – | – | – | – | minimal effect | minimal effect on cell viability | 215 ± 1.09 | some inhibition | less than 50%
